Measured values as given in US8835440B2, “Cyclic pyrimidin-4-carboxamides as CCR2 receptor antagonists for treatment of inflammation, asthma and COPD” (Boehringer Ingelheim International GmbH, priority 2008, dated 2014).

Molecular target: T1, CCR2 (Homo sapiens, UniProt P41597)
T1 construct: Membranes were prepared from THP-1 cells; endogenous in cells; host or cells: THP-1 cells (membrane preparation)
T1 sequence (P41597 1-360 isoform P41597-2): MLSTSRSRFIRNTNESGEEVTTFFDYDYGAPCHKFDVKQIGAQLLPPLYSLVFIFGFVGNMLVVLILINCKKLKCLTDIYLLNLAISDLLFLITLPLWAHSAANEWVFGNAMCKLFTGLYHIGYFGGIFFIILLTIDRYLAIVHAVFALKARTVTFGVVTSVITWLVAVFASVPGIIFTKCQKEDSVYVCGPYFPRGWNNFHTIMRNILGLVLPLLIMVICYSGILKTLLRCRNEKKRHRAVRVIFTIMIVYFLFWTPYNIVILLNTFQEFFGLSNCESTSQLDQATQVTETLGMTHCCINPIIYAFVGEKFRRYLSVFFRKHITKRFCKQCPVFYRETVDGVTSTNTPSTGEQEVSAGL
Experiment: CCR2 receptor membrane binding assay ([125I]MCP-1, THP-1 cell membranes, SPA beads)
Details: for remaining activity at 10 µM: @ 10 μM test compound, THP-1 membranes, read-out: CCR2 % ctrl @ 10 μM; for Ki: dissociation constant hKi, [125I]MCP-1 binding to THP-1 membranes
Protocol: The above exemplary substances have been tested for binding to CCR2 using a binding assay as outlined herein below:
THP-1 cells (human acute monocytic leukaemia cells) were cultured under standardized conditions at 37° C. and 5% CO2 in a humidified incubator. THP-1 cells were cultivated in RPMI 1640 medium (Gibco 21875) containing 1% MEM-NEAA (Gibso 11140) 2 mM L-glutamine, 1.5 g/L sodium bicarbonate, 4.5 g/L glucose, 10 mM HEPES and 1.0 mM sodium pyruvate, 90%; 10% fetal calf serum (FCS Gibco 10500-064).
Membranes were prepared from THP-1 cells. THP-1 cells were centrifuged at 300×g at 4° C. for 10 min. The cell pellet was resuspendet in Phosphate Buffer Saline (PBS, including 10 μM Pefabloc and a protease inhibitor mix ‘complete’, Boehringer Mannheim (1 tablet/50 ml)), to a concentration of […]. The membrane preparation was performed by disrupting the cells by nitrogen […] (at 50 bar, for 1 h) in a “Nitrogen Bombe” (Parr Instrument). Cell debris was removed by centrifugation (800×g at 4° C., 1 min). The supernatant was centrifuged at 80000×g, 4° C. for 30 min to sediment the cell membranes. Usually 50 mg of protein (Bradford assay) were yielded from 1×10E9 cells. The membranes were resuspendet in 25 mM HEPES, 25 mM MgCl2, 1 mM CaCl2, 10% Glycerine for storage in aliquots at −80° C. in 25 mM HEPES, 25 mM MgCl2, 1 mM CaCl2, 10% Glycerine and stored at −80° C.
Receptor Membrane Binding Assay:
Perkin Elmer NEX 332 Jod 125 MCP-1, Stock: 2200 Ci/mmol solved in 2000 μl assay buffer, stored at −20° C. THP-1 membrane were adjusted with 25 mM HEPES, pH 7.2; 5 mM MgCl2; 0.5 mM CaCl2; 0.2% BSA assay buffer to a concentration of […]. Amersham Biosciences PVT-WGA Beads (RPNQ0001) were adjusted with assay buffer to a concentration of 0.24 mg/30 μl. For preparation of the membrane-bead-suspension membranes and beads were incubated for 30 min at RT under rotation (60 rpm) with a ratio of 1:2. Test compounds dissolved in 100% DMSO to a concentration of 10 mM and are further diluted with 100% DMSO to 1 mM. All additional compound dilutions were obtained with assay buffer, final 1% DMSO. Compounds, membrane-bead-suspension and [125I]MCP-1 (ca. 25000 cpm/10 μl) were incubated. Bound radioactivity was determined by scintillation counter after 8 h. Determination of affinity of test compounds (dissociation constant hKi) is calculated by iterative fitting of experimental data using the “easy sys” program, which is based on law of mass action (Schittkowski K. (1994), Numerische Mathematik, Vol. 68, 129-142).

## Cc1c(NCc2ccc(C(C)(C)C)cc2)ncnc1C(=O)N1CCC(N2CCC(N(C)S(C)(=O)=O)CC2)CC1 [Example 1]
  remaining activity at 10 µM: 1%
  Ki: 32 nM

## Cc1c(NCCc2ccc(Cl)c(Cl)c2)ncnc1C(=O)N1CCC(N2CCCCC2)CC1 [Example 2]
  remaining activity at 10 µM: 13%
  Ki: 222 nM

## Cc1c(NCCc2ccc(Cl)c(Cl)c2)ncnc1C(=O)N1CCC(N2CCC(O)CC2)CC1 [Example 3]
  remaining activity at 10 µM: 14%
  Ki: 204 nM

## Cc1c(NCc2cccc(C(F)(F)F)c2)ncnc1C(=O)N1CCC(N2CCC(O)CC2)CC1 [Example 4]
  remaining activity at 10 µM: 43%
  Ki: 1590 nM

## Cc1c(NCc2ccc(OC(F)(F)F)cc2)ncnc1C(=O)N1CCC(N2CCC(O)CC2)CC1 [Example 5]
  remaining activity at 10 µM: 26%
  Ki: 616 nM

## Cc1c(NCc2cc(F)cc(C(F)(F)F)c2)ncnc1C(=O)N1CCC(N2CCC(O)CC2)CC1 [Example 6]
  remaining activity at 10 µM: 41%
  Ki: 1930 nM

## Cc1c(NCc2ccc(C(C)(C)C)cc2)ncnc1C(=O)N1CCC(N2CCC(O)CC2)CC1 [Example 7]
  remaining activity at 10 µM: 16%
  Ki: 306 nM

## Cc1c(NCc2cccc(OC(F)(F)F)c2)ncnc1C(=O)N1CCC(N2CCC(O)CC2)CC1 [Example 8]
  remaining activity at 10 µM: 36%
  Ki: 1020 nM

## Cc1c(NCc2ccc(C(F)(F)F)cc2)ncnc1C(=O)N1CCC(N2CCC(O)CC2)CC1 [Example 9]
  remaining activity at 10 µM: 32%
  Ki: 974 nM

## Cc1c(NCc2ccc(C(F)(F)F)c(F)c2)ncnc1C(=O)N1CCC(N2CCC(O)CC2)CC1 [Example 10]
  remaining activity at 10 µM: 27%
  Ki: 650 nM

## Cc1c(NCCc2cccc(C(F)(F)F)c2)ncnc1C(=O)N1CCC(N2CCC(O)CC2)CC1 [Example 11]
  remaining activity at 10 µM: 38%
  Ki: 1710 nM

## Cc1c(NCCc2ccc(C(F)(F)F)cc2)ncnc1C(=O)N1CCC(N2CCC(O)CC2)CC1 [Example 12]
  remaining activity at 10 µM: 29%
  Ki: 664 nM

## Cc1c(NCC2CCC(C(F)(F)F)CC2)ncnc1C(=O)N1CCC(N2CCC(O)CC2)CC1 (centres unmarked) [Example 13]
  remaining activity at 10 µM: 42%
  Ki: 1330 nM

## Cc1c(NCCc2ccc(OC(F)(F)F)cc2)ncnc1C(=O)N1CCC(N2CCC(O)CC2)CC1 [Example 14]
  remaining activity at 10 µM: 22%
  Ki: 387 nM

## Cc1c(NCCCCc2ccccc2)ncnc1C(=O)N1CCC(N2CCC(O)CC2)CC1 [Example 15]
  remaining activity at 10 µM: 14%
  Ki: 200 nM

## Cc1c(NCCOc2ccccc2)ncnc1C(=O)N1CCC(N2CCC(O)CC2)CC1 [Example 16]
  remaining activity at 10 µM: 40%
  Ki: 1900 nM

## Cc1c(NCCCc2ccccc2)ncnc1C(=O)N1CCC(N2CCC(O)CC2)CC1 [Example 17]
  remaining activity at 10 µM: 18%
  Ki: 302 nM

## Cc1c(NCCOCc2ccccc2)ncnc1C(=O)N1CCC(N2CCC(O)CC2)CC1 [Example 18]
  remaining activity at 10 µM: 52%
  Ki: 3500 nM

## Cc1c(NCC2COc3ccccc3C2)ncnc1C(=O)N1CCC(N2CCC(O)CC2)CC1 (centres unmarked) [Example 19]
  remaining activity at 10 µM: 40%
  Ki: 269 nM

## Cc1c(NCC2CCN(c3ccccc3)C2)ncnc1C(=O)N1CCC(N2CCC(O)CC2)CC1 (centres unmarked) [Example 20]
  remaining activity at 10 µM: 24%
  Ki: 303 nM

## Cc1c(NCc2ccc(C(F)(F)F)cc2F)ncnc1C(=O)N1CCC(N2CCC(O)CC2)CC1 [Example 21]
  remaining activity at 10 µM: 51%
  Ki: 2660 nM

## Cc1c(NC2CCC(c3ccccc3)CC2)ncnc1C(=O)N1CCC(N2CCC(O)CC2)CC1 (centres unmarked) [Example 22]
  remaining activity at 10 µM: 24%
  Ki: 466 nM

## Cc1c(NCC2Cc3ccccc3C2)ncnc1C(=O)N1CCC(N2CCC(O)CC2)CC1 [Example 23]
  remaining activity at 10 µM: 7%
  Ki: 169 nM

## Cc1c(NC2COc3ccccc3C2)ncnc1C(=O)N1CCC(N2CCC(O)CC2)CC1 (centres unmarked) [Example 24]
  remaining activity at 10 µM: 58%
  Ki: 4030 nM

## Cc1c(N[C@@H]2CCc3ccccc3C2)ncnc1C(=O)N1CCC(N2CCC(O)CC2)CC1 [Example 25]
  remaining activity at 10 µM: 47%
  Ki: 2410 nM

## Cc1c(NCC2Cc3ccccc32)ncnc1C(=O)N1CCC(N2CCC(O)CC2)CC1 (centres unmarked) [Example 26]
  remaining activity at 10 µM: 30%
  Ki: 914 nM

## Cc1c(NCC2Cc3ccccc3O2)ncnc1C(=O)N1CCC(N2CCC(O)CC2)CC1 (centres unmarked) [Example 27]
  remaining activity at 10 µM: 25%
  Ki: 620 nM

## Cc1c(NC2CCCCC2)ncnc1C(=O)N1CCC(N2CCC(O)CC2)CC1 [Example 28]
  remaining activity at 10 µM: 58%
  Ki: 4180 nM

## Cc1c(NCc2ccc3occc3c2)ncnc1C(=O)N1CCC(N2CCC(O)CC2)CC1 [Example 29]
  remaining activity at 10 µM: 40%
  Ki: 2100 nM

## Cc1ccc(CNc2ncnc(C(=O)N3CCC(N4CCC(O)CC4)CC3)c2C)cc1Cl [Example 30]
  remaining activity at 10 µM: 18%
  Ki: 446 nM

## Cc1ccc(CNc2ncnc(C(=O)N3CCC(N4CCC(O)CC4)CC3)c2C)cc1C [Example 31]
  remaining activity at 10 µM: 28%
  Ki: 790 nM

## CCS(=O)(=O)N(C)C1CCN(C2CCN(C(=O)c3ncnc(NCc4ccc(C)c(Cl)c4)c3C)CC2)CC1 [Example 32]
  remaining activity at 10 µM: 2%
  Ki: 37 nM

## CCS(=O)(=O)N(C)C1CCN(C2CCN(C(=O)c3ncnc(NCc4ccc(C(F)(F)F)c(Cl)c4)c3C)CC2)CC1 [Example 33]
  remaining activity at 10 µM: 0%
  Ki: 22 nM

## CCS(=O)(=O)N(C)C1CCN(C2CCN(C(=O)c3ncnc(NCc4ccc(C(C)C)cc4)c3C)CC2)CC1 [Example 34]
  remaining activity at 10 µM: 4%
  Ki: 62 nM

## CCS(=O)(=O)N(C)C1CCN(C2CCN(C(=O)c3ncnc(NCc4ccc(Cl)c(Cl)c4)c3C)CC2)CC1 [Example 35]
  remaining activity at 10 µM: 5%
  Ki: 24 nM

## CCS(=O)(=O)N(C)C1CCN(C2CCN(C(=O)c3ncnc(NCCc4ccc(Cl)c(Cl)c4)c3C)CC2)CC1 [Example 36]
  remaining activity at 10 µM: 1%
  Ki: 10 nM

## CCS(=O)(=O)N(C)C1CCN(C2CCN(C(=O)c3ncnc(NCc4ccc(C(C)(C)C)cc4)c3C)CC2)CC1 [Example 37]
  remaining activity at 10 µM: 4%
  Ki: 11 nM

## CCS(=O)(=O)N(C)C1CCN(C2CCN(C(=O)c3ncnc(NCC4CCCN(c5ccccc5)C4)c3C)CC2)CC1 (centres unmarked) [Example 38]
  remaining activity at 10 µM: 13%
  Ki: 69 nM

## CCS(=O)(=O)N(C)C1CCN(C2CCN(C(=O)c3ncnc(NCc4ccc(Cl)c(F)c4)c3C)CC2)CC1 [Example 39]
  remaining activity at 10 µM: 2%
  Ki: 36 nM

## CCS(=O)(=O)N(C)C1CCN(C2CCN(C(=O)c3ncnc(NCC4CCN(c5ccccc5)CC4)c3C)CC2)CC1 [Example 40]
  remaining activity at 10 µM: 9%
  Ki: 174 nM

## CCS(=O)(=O)N(C)C1CCN(C2CCN(C(=O)c3ncnc(NC[C@H]4CCN(c5ccccc5)C4)c3C)CC2)CC1 [Example 41]
  remaining activity at 10 µM: 6%
  Ki: 11 nM

## Cc1c(NCC2CCCN(c3ccccc3)C2)ncnc1C(=O)N1CCC(N2CCOCC2)CC1 (centres unmarked) [Example 42]
  remaining activity at 10 µM: 16%
  Ki: 433 nM

## Cc1ccc(CNc2ncnc(C(=O)N3CCC(N4CCOCC4)CC3)c2C)cc1Cl [Example 43]
  remaining activity at 10 µM: 17%
  Ki: 566 nM

## Cc1ccc(CNc2ncnc(C(=O)N3CCC(N4CCOCC4)CC3)c2C)cc1F [Example 44]
  remaining activity at 10 µM: 27%
  Ki: 1640 nM

## Cc1c(NCc2ccc(Cl)c(F)c2)ncnc1C(=O)N1CCC(N2CCOCC2)CC1 [Example 45]
  remaining activity at 10 µM: 17%
  Ki: 501 nM

## Cc1c(NCC2Cc3ccccc3C2)ncnc1C(=O)N1CCC(N2CCOCC2)CC1 [Example 46]
  remaining activity at 10 µM: 12%
  Ki: 225 nM
